Target: T1, Mitogen-activated protein kinase kinase kinase 5 (Homo sapiens, UniProt Q99683)
T1 sequence (Q99683 whole entry): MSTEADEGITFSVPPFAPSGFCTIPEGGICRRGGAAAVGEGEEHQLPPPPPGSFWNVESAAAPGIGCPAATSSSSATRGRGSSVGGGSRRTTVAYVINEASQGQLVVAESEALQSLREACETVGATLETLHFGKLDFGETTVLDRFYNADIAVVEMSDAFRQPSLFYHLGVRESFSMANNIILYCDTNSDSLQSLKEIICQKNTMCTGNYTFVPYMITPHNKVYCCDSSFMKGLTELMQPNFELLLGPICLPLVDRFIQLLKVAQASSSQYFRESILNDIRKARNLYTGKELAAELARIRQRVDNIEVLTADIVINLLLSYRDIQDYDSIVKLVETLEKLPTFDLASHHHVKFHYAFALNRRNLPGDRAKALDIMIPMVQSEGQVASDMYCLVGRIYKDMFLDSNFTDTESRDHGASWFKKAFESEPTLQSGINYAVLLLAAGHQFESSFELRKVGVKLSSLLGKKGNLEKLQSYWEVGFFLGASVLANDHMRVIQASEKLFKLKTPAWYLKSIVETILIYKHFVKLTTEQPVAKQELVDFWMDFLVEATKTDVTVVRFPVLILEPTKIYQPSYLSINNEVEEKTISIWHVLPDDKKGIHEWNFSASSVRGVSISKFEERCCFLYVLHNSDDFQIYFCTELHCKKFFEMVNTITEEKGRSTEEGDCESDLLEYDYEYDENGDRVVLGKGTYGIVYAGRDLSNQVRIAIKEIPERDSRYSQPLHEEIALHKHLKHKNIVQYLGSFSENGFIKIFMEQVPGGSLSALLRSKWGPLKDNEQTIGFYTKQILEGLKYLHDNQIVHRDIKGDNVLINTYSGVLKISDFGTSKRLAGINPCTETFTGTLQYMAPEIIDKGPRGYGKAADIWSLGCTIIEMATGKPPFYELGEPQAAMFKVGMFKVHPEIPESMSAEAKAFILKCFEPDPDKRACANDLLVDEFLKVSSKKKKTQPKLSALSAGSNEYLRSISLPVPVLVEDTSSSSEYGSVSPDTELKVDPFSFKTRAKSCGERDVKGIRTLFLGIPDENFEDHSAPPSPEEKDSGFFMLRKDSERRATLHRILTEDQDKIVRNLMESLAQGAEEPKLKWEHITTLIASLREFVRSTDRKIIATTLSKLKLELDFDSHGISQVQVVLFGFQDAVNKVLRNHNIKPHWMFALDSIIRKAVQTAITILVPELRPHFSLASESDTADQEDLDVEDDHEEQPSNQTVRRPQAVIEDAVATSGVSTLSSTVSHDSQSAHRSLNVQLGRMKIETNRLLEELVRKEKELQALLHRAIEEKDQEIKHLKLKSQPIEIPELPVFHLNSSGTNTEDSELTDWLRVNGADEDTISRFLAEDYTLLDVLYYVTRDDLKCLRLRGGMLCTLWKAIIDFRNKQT
Assay: HTRF KinEASE Assay : ASK1 was purchased from Thermofisher (Catalogue #PV4011), ATP was purchased from Sigma (Catalogue #A7699), HTRF® KinEASE Assay System was obtained from Cisbio (Bedford, Mass.). ½ Area plate was purchased from Perkin Elmer (Catalogue ##6005560). HTRF® KinEASE-STK is a generic method for measuring serine/threonine kinase activities using a time-resolved fluorescence resonance energy transfer (TR-FRET) immunoassay. The IC50 value for each compound was determined in the presence of compound (various concentration from 0 to 10 μM) and a fixed amount of ATP and peptide substrates. The test compound, 1 μM STK3 peptide substrate, and […] are incubated with kinase reaction buffer containing 50 mM HEPES Ph 7.5, 0.01% BRIJ-35, 10 mM MgCl2, and 1 mM EGTA for 30 minutes. 100 μM ATP is added to start kinase reaction and incubated for 3 hours. The STK3-antibody labeled with Eu3+-Cryptate and 125 nM streptavidin-XL665 are mixed in a single addition with stop reagents provided by the Cisbio kit used to stop the kinase reaction. Fluorescence is detected using an Envision Multilabeled 2014 reader from PerkinElmer. The Fluorescence is measured at 615 nm (Cryptate) and 665 nm (XL665) and a ratio of 665 nm/615 nm is calculated for each well. The resulting TR-FRET is proportional to the phosphorylation level. Staurosporine was used as the positive control. IC50 was determined by Xlfit 5.3.

| SMILES | IC50 [nM] |
| --- | --- |
| C[C@H](CO)n1cnnc1-c1cccc(NC(=O)c2cc3c(cc2F)CCN(C(=O)NC2CCCC2)C3)n1 | < 1.25 |
| CCOC(=O)N1CCc2cnc(C(=O)Nc3cccc(-c4nncn4C(C)C)n3)cc2C1 | 1.25 to 10 |
| CCNC(=O)N1CCc2cc(OC)c(C(=O)Nc3cccc(-c4nncn4C(C)C)n3)cc2C1 | < 1.25 |
| C[C@H](CO)n1cnnc1-c1cccc(NC(=O)c2cc3c(cc2F)CCN(C(=O)c2ccc(F)cc2)C3)n1 | 1.25 to 10 |
| COc1cc2c(cc1C(=O)Nc1cccc(-c3nnnn3[C@H](C)CO)n1)CN(C(=O)c1ccc(F)cc1)CC2 | < 1.25 |
| C[C@H](CO)n1cnnc1-c1cccc(NC(=O)c2cc3c(cc2F)CCN(S(=O)(=O)C2CC2)C3)n1 | < 1.25 |
| C[C@H](CO)n1cnnc1-c1cccc(NC(=O)c2cc3c(cn2)CCN(C(=O)OCC(F)(F)F)C3)n1 | < 1.25 |
| COc1cc2c(cc1C(=O)Nc1cccc(-c3nncn3C(C)C)n1)CN(C(=O)c1ccc(F)cc1)CC2 | < 1.25 |
| COc1cc2c(cc1C(=O)Nc1cccc(-c3nnnn3[C@H](C)CO)n1)CN(C(=O)c1cn(C3CC3)cn1)CC2 | 1.25 to 10 |
| C[C@H](CO)n1cnnc1-c1cccc(NC(=O)c2cc3c(cn2)CCN(C(=O)N2CCCC2)C3)n1 | 1.25 to 10 |
| C[C@H](CO)n1cnnc1-c1cccc(NC(=O)c2cc3c(cn2)CCN(S(=O)(=O)N(C)C)C3)n1 | < 1.25 |
| COc1cc2c(cc1C(=O)Nc1cccc(-c3nncn3C(C)C)n1)CN(C)CC2 | < 1.25 |
| CC(C)N1CCc2cc(F)c(C(=O)Nc3cccc(-c4nncn4[C@H](C)CO)n3)cc2C1 | < 1.25 |
| COc1cc2c(cc1C(=O)Nc1cccc(-c3nnnn3[C@H](C)CO)n1)CN(C(=O)c1cnn(C)c1)CC2 | < 1.25 |
| CC(C)n1cnnc1-c1cccc(NC(=O)c2cc3c(cn2)CCN(C(=O)c2ccc(F)cc2)C3)n1 | 1.25 to 10 |
| CC(C)n1cnnc1-c1cccc(NC(=O)c2cc3c(cn2)CCN(C(=O)N2CCCC2)C3)n1 | < 1.25 |
| CCNC(=O)N1CCc2cnc(C(=O)Nc3cccc(-c4nncn4[C@H](C)CO)n3)cc2C1 | 1.25 to 10 |
| CC(C)n1cnnc1-c1cccc(NC(=O)c2cc3c(cc2F)CCN(c2ncccn2)C3)n1 | < 1.25 |

Now from value to molecule:

| IC50 [nM] | SMILES |
| --- | --- |
| < 1.25 | COc1cc2c(cc1C(=O)Nc1cccc(-c3nnnn3C(C)C)n1)CN(C(=O)OCC(F)(F)F)CC2 |
| 1.25 to 10 | COc1cc2c(cc1C(=O)Nc1cccc(-c3nnnn3[C@H](C)CO)n1)CN(C)CC2 |
| < 1.25 | COc1cc2c(cc1C(=O)Nc1cccc(-c3nnnn3[C@H](C)CO)n1)CN(C(=O)C(C)(C)C)CC2 |
| 1.25 to 10 | COc1cc2c(cc1C(=O)Nc1cccc(-c3nnnn3C(C)C)n1)CN(C(C)C)CC2 |
| < 1.25 | COc1cc2c(cc1C(=O)Nc1cccc(-c3nnnn3C(C)C)n1)CN(C(=O)c1ccc(F)cc1)CC2 |
| 1.25 to 10 | COc1cc2c(cc1C(=O)Nc1cccc(-c3nnnn3C(C)C)n1)CN(S(=O)(=O)CCC(F)(F)F)CC2 |
| 1.25 to 10 | CCOC(=O)N1CCc2cc(OC)c(C(=O)Nc3cccc(-c4nnnn4[C@H](C)CO)n3)cc2C1 |
| < 1.25 | COc1cc2c(cc1C(=O)Nc1cccc(-c3nncn3[C@H](C)CO)n1)CN(S(=O)(=O)CCC(F)(F)F)CC2 |
| < 1.25 | COc1cc2c(cc1C(=O)Nc1cccc(-c3nnnn3C(C)C)n1)CN(C(=O)OCc1ccccc1)CC2 |
| < 1.25 | COc1cc2c(cc1C(=O)Nc1cccc(-c3nnnn3[C@H](C)CO)n1)CN(C(=O)C[C@H](C)O)CC2 |
| < 1.25 | CCNC(=O)N1CCc2cc(OC)c(C(=O)Nc3cccc(-c4nnnn4C(C)C)n3)cc2C1 |
| < 1.25 | COc1cc2c(cc1C(=O)Nc1cccc(-c3nnnn3[C@H](C)CO)n1)CN(C(C)C)CC2 |
| 1.25 to 10 | COc1cc2c(cc1C(=O)Nc1cccc(-c3nncn3[C@H](C)CO)n1)CN(C(=O)OCC(F)(F)F)CC2 |
| 1.25 to 10 | COc1cc2c(cc1C(=O)Nc1cccc(-c3nnnn3[C@H](C)CO)n1)CN(S(=O)(=O)CCC(F)(F)F)CC2 |
| 1.25 to 10 | COc1cc2c(cc1C(=O)Nc1cccc(-c3nnnn3[C@H](C)CO)n1)CN(C(=O)OCC(F)(F)F)CC2 |
| < 1.25 | COc1cc2c(cc1C(=O)Nc1cccc(-c3nnnn3[C@H](C)CO)n1)CN(S(=O)(=O)C1CC1)CC2 |

Source: ChEMBL document CHEMBL5729134, “Apoptosis signal-regulating kinase 1 inhibitors and methods of use thereof” (2022)
